How the values were obtained:
[1] = patients with heart failure, phase III; cited from earlier work
[2] = healthy subjects and hypertensive patients; cited from earlier work
[3] = test system: conscious rats; experiment: Radiotelemetric measurement of blood pressure and heart rate of conscious rats; type: in vivo, rat
Text: Radiotelemetric Measurement of Blood Pressure and Heart Rate of Conscious Rats
A commercially available telemetry system from Data Sciences International DSI, USA, was employed for the measurements on conscious rats (Wistar strain Unilever/WU or Spontaneous Hypertensive Rat/SHR) described below. The system consists of 3 main components: (1) implantable transmitters (PhysioTel® telemetry transmitter), (2) receivers (PhysioTel® receiver), which are linked via a multiplexer (DSI Data Exchange Matrix) to a (3) data acquisition computer. The telemetry system makes it possible to continuously record blood pressure, heart rate and body motion of conscious animals in their usual habitat.
The studies are conducted on adult female rats with a body weight of >200 g. After transmitter implantation, the experimental animals are housed singly in type III Makrolon® cages. They have free access to standard feed and water. The day/night rhythm in the test laboratory is set by changing the illumination of the room.
The telemetry transmitters used (e.g. PA-C40 HD-S10, DSI) are surgically implanted under aseptic conditions in the experimental animals at least 14 days before the first experimental use.
For the implantation, the fasted animals are anesthetized with isoflurane (IsoFlo®, Abbott, initiation 5%, maintenance 2%) and shaved and disinfected over a large area of their abdomens. After the abdominal cavity has been opened along the linea alba, the liquid-filled measuring catheter of the system is inserted into the descending aorta in the cranial direction above the bifurcation and fixed with tissue glue (Vetbond™, 3M). The transmitter housing is fixed intraperitoneally to the abdominal wall muscle, and the wound is closed layer by layer. Post-operatively, an antibiotic (Ursocyclin® 10%, 60 mg/kg s.c., 0.06 ml/100 g body weight, Serumwerk Bernburg AG, Germany) for infection prophylaxis and an analgesic (Rimadyl®, 4 mg/kg s.c., Pfizer, Germany) are administered.
Unless stated otherwise, the substances to be studied are administered orally to a group of animals in each case (n=6). In accordance with an administration volume of 2 ml/kg of body weight, the test substances are dissolved in suitable solvent mixtures. A solvent-treated group of animals is used as control.
The telemetry measuring system is configured for 24 animals.
Each of the instrumented rats living in the system is assigned a separate receiving antenna (RPC-1 Receiver, DSI). The implanted senders can be activated externally via an installed magnetic switch and are switched to transmission during the pre-run of the experiment. The signals emitted can be detected online by a data acquisition system (Dataquest™ A.R.T. for Windows, DSI or Ponemah, DSI) and processed accordingly.
In the standard procedure, the following are measured for 10-second periods in each case: (1) systolic blood pressure (SBP), (2) diastolic blood pressure (DBP), (3) mean arterial pressure (MAP), (4) heart rate (HR) and (5) activity (ACT). These parameters are measured over 24 hours after administration.
The acquisition of measurements is repeated under computer control at 5-minute intervals. The source data obtained as absolute values are corrected in the diagram with the currently measured barometric pressure (Ambient Pressure Reference Monitor, APR-1, DSI).
After the end of the experiment, the acquired individual data are sorted using the analysis software (Dataquest™ A.R.T. 4.1 Analysis or Ponemah, DSI). The 2 hour time point before substance administration is assumed as the blank value.
The data are smoothed over a presettable period by determination of the means (30 minute mean).

[4] = compound of the formula (6) alone, oral 0.3 mg/kg
[5] = compound of the formula (29) alone, oral 3 mg/kg
[6] = compound of the formula (29) alone, oral 10 mg/kg

trisodium [3-((1S,3R)-1-biphenyl-4-ylmethyl-3-ethoxycarbonyl-1-butylcarbamoyl)propionate-(S)-3′-methyl-2′-(pentanoyl{2″-(tetrazol-5-ylate)biphenyl-4′-ylmethyl}amino)butyrate] hemipentahydrate [LCZ696]
risk of death and hospitalization [1]: reduction in the risk of death and hospitalization
ANP and cGMP [2]: increase in ANP and cGMP
renin and angiotensin [2]: compensatory increase in renin and angiotensin

COC(=O)Nc1c(N)nc(-c2nn(Cc3ccccc3F)c3ncc(F)cc23)nc1N [formula (6), methyl {4,6-diamino-2-[5-fluoro-1-(2-fluorobenzyl)-1H-pyrazolo[3,4-b]pyridine-3-yl]pyrimidin-5-yl}carbamate]
decrease in the mean arterial blood pressure [3, 4]: ca. −10%
heart rate [3, 4]: transient increase in heart rate
hemodynamic effects (blood pressure, heart rate) ([3]; compound of the formula (6) alone, oral dose 0.1 mg/kg): no hemodynamic effects

C[C@H]([C@H](C(=O)Nc1cc(C(CC(=O)O)C2CC2)ccc1Cl)c1ccc(Cl)cc1)C(F)(F)F (stereo partly drawn) [formula (29), 3-(4-chloro-3-{[(2S,3R)-2-(4-chlorophenyl)-4,4,4-trifluoro-3-methylbutanoyl]amino}phenyl)-3-cyclopropylpropanoic acid]
heart rate ([3]; compound of the formula (29) alone, oral 1 mg/kg): reflex tachycardia
decrease in the mean arterial blood pressure [3, 5]: ca. −10%
heart rate [3, 5]: associated reflex tachycardia
decrease in the mean arterial blood pressure [3, 6]: ~15%
heart rate [3, 6]: associated reflex tachycardia

From patent US12427131B2, “Stimulators and/or activators of soluble guanylate cyclase (sGC) in combination with an inhibitor of neutral endopeptidase (NEP inhibitor) and/or an angiotensin AII antagonist and the use thereof” (BAYER PHARMA AKTIENGESELLSCHAFT, priority 2015, dated 2025)
